Experimental data reported in patent publication US20230151065A1, “MULTI-DISULFIDE-BOND LONG-CHAIN PEPTIDE WITH NEURO[…], PHARMACEUTICAL COMPOSITION AND APPLICATION” (priority 2018, published 2023).
Where no end group is shown, it is not given here.

Experiments:
[1] = tested on: primary cultured hippocampal neurons damaged by NMDA; assay: NMDA damage of primary cultured hippocampal neurons, MTT viability; type: cell-based, SD (Sprague-Dawley) rat; settings: for hippocampal neuron activity after NMDA damage (MTT): MK801 10 μM
From the text: (1) Establishment of NMDA damage model. Primary culture of hippocampal neurons: SD (Sprague-Dawley) female rats pregnant for 18-19 days were anesthetized with a compound anaesthetic agent; fetal rat brains were taken under aseptic conditions and placed in HBSS solution (8.4 g/L of NaCl, 0.224 g/L of KCl, 2.38 g/L of HEPES, 500,000 units of penicillin sodium and 500,000 units of kanamycin sulfate; the pH was adjusted to 7.1-7.2 with 1M NaOH; then the osmotic pressure was adjusted to about 290±10 m Osm with ultrapure water; and after filtration, the solution was stored at 4° C.); the meninges were removed under a stereoscopic dissecting microscope; the bilateral hippocampus was removed and digested in 0.125% pancreatic protease at 37° C. for 10 min; and complete media (90% DMEM medium+10% FBS) (FBS: fetal bovine serum) was used to terminate the digestion; the bilateral hippocampus was washed for 3 times with the complete media to make a single cell suspension; the cell density was adjusted to about 7-8×10^5/ml; and the bilateral hippocampus was inoculated to a 6-well/96-well cell culture plate/60 mm culture dish/slide coated with L-polylysine. After 24 hours, the media were changed to serum-free neurobasal media (GIBCO) which were then placed in a 5% CO2, 37° C. incubator for culture; and half of the solution was changed every three days.
(2) NMDA damage treatment of hippocampal neurons: (1) The original media were sucked out and the cells were washed with magnesium-free extracellular fluid for three times, each for 5 minutes. (2) 10 mM NMDA (N-methyl-D-aspartic acid) and 10 mM Gly (glycine) were prepared with magnesium-free extracellular fluid, and NMDA was prepared to different concentrations with the magnesium-free extracellular fluid, wherein the final concentration of Gly was 10 μM. […] After damage, the cells were washed for three times with DMEM medium, each for 5 minutes. (3) The original culture media were re-added to continue for culturing for 24 hours.
(3) Detection of viability of hippocampal neurons after NMDA damage: (1) The hippocampal neurons were inoculated into a 96-well culture plate at 8×10^5 cells/ml, 0.1 ml per well, and cultured in a 5% CO2 incubator for 7-8 days. (2) After NMDA damage treatment and continuous culture for 24 hours, the culture solution was sucked off. (3) 100 μl of DMEM culture medium containing MTT (3-(4,5-dimethylthiazole-2)-2,5-diphenyltetrazolium bromide, 0.5 mg/ml) was added to each well, and the culture plate was put into 37° C., 5% CO2 incubator for culturing for 4 h. (4) 100 μl of 20% SDS was added to each well (20 g of sodium lauryl sulfate was dissolved in 50 ml of ddH2O+50 ml of N,N dimethylformamide) at 37° C. for 20 h. (5) The solution was shaken on a horizontal shaker for 5 min. (6) The optical density (OD) was measured at 570 nm (reference wavelength of 490 nm) on a microplate reader.
(6) Effect of ABPPk2 on decrease of hippocampal neuron activity caused by NMDA. Effect of different concentrations of ABPPk2 on hippocampal neuron damage caused by NMDA (100 μM, 30 min). The experiment was divided into 9 experimental groups: a normal group, NMDA (100 μM, 30 min) group (as a control group), ABPPk2 (0.01 μg/ml) group, ABPPk2 (0.1 μg/ml) group, ABPPk2 (0.3 μg/ml) group, ABPPk2 (1 μg/ml) group, ABPPk2 (3 μg/ml) group, ABPPk2 (10 μg/ml) group and MK801 (dizocilpine, 10 μM) group (as a positive control group). Three administration ways were adopted for ABPPk2: (1) ABPPk2 was administered 12 hours before and during the NMDA damage. (2) ABPPk2 was administered during NMDA damage. (3) ABPPk2 was administered during 24 hours of culture after NMDA damage.

[2] = tested on: primary fetal rat hippocampal neurons; assay: Growth cones and neurite growth of hippocampal neurons, immunocytochemical staining; type: cell-based; settings: vs negative control
Description: (1) Primary culture of fetal rat hippocampal neurons: after a rat pregnant for 17 days was anesthetized, a fetal rat was taken out under sterile conditions; the brain of the fetal rat was taken out on ice; the hippocampus was carefully taken out under a dissecting microscope; and the blood vessel membranes were removed. 0.125% trypsin/EDTA was digested at 37° C. for 10 min, and the digestion was stopped by adding the DMEM complete medium containing 10% FBS. Cell debris were removed through centrifugal at 1000 rpm for 5 min; the DMEM complete medium was added to resuspend the cells; the cells were gently blown until a single cell suspension was formed; and the cells were inoculated at an appropriate density on a culture plate (dish) pre-coated with polylysine (PLL) and cultured at 37° C., 5% CO2 incubator. After 4 h, the cells were adhered to the wall; the DMEM complete medium was discarded and replaced with neurobasal medium containing different concentrations of ABPPk2 (the concentrations of ABPPk2 were 4 ng/ml, 20 ng/ml and 100 ng/ml); the neurobasal medium containing 10 ng/ml BDNF was used as the positive control group, and neurobasal was used as the negative control group.
(4) The immunocytochemical staining method was used to observe the effect of ABPPk2 on the growth cones of primary fetal rat hippocampal neuron neurites. Primary hippocampal neurons were cultured according to the steps in (1), and the cells were inoculated on small round slides pre-coated with PLL at a density of 5×10^4, and then placed on a 24-well culture plate for culturing. Grouping and treatment were as described above. After 24 h, double-labeled immunocytofluorescent chemical staining of β-tubulin3 (TRITC) and F-actin (FITC) was conducted; the growth of the neurons was observed under a laser confocal microscope; and the area of the neuron growth cone and the length of filopodia were counted, as shown in FIG. 23.
(5) The immunocytochemical staining method was used to observe the effect of ABPPk2 on the growth of primary fetal rat hippocampal neuron neurites. Primary hippocampal neurons were cultured according to the steps in (1), and the cells were inoculated on small round slides pre-coated with PLL at a density of 5×10^4, and then placed on a 24-well culture plate for culturing. Grouping and treatment were as described above. […] The length of the neurites started from the axon hillock of the cell body to the top of the axon. The number of the neurites from the neuron cell bodies refers to the neurites directly connected with the cell bodies, as shown in FIG. 24.
(6) β-tubulin3 […]; the growth of the neurites was observed under the laser confocal microscope; the number of neurite branches and the proportion of the neurites with different lengths were counted; and the number of neurite branches refers to the number of branches of the neurites in a circle with a neuron cell body as the center and a radius of 100 μm.

[3] = ABPPk2 4, 20, 100 ng/ml, 12 h as printed (24 h in method)

Substance: Cys-Leu-Glu-Ser-Gly-Thr-Ser-Cys-Ile-Pro-Gly-Ala-Gln-His-Asn-Cys-Cys-Ser-Gly-Val-Cys-Val-Pro-Ile-Val-Thr-Ile-Phe-Tyr-Gly-Val-Cys-Tyr (CLESGTSCIPGAQHNCCSGVCVPIVTIFYGVCY; disulfide (positions not given here); not fully specified (bridges); also: three disulfide bonds, pairing not given here) [ABPPk2, 33 amino acid polypeptide isolated from the extract of Achyranthes bidentata Blume, three pairs of disulfide bonds]
- hippocampal neuron activity after NMDA damage (MTT) ([1]; given 12 h before and during NMDA (100 μM, 0.5 h), ABPPk2 0.1, 0.3 and 1 μg/ml groups): can effectively reduce the decrease of hippocampal neuron activity caused by NMDA damage
- hippocampal neuron activity after NMDA damage (MTT) ([1]; given during 24 h culture after NMDA damage (100 μM, 0.5 h), ABPPk2 0.1-10 μg/ml): can effectively reduce the decrease of hippocampal neuron activity caused by NMDA damage
- hippocampal neuron activity after NMDA damage (MTT) ([1]; given during NMDA damage (100 μM, 0.5 h), ABPPk2 1 and 10 μg/ml groups): can effectively reduce the decrease of hippocampal neuron activity caused by NMDA damage
- protective effect on NMDA damage of primary hippocampal neurons ([1]; overall statement, experimental solution of embodiment 6, concentration and administration way not stated): has a protective effect on the damage of primary cultured hippocampal neurons induced by NMDA
- area of the neuron growth cone [2, 3]: the area of the growth cone can be significantly increased
- length of filopodia [2, 3]: the length of the filopodia can be increased
- length of the neurites ([2]; ABPPk2 for 24 h): the extension of hippocampal neuronal neurites can be significantly promoted
- number of the neurites from the neuron cell bodies ([2]; ABPPk2 for 24 h): the number of the neurites from the neuron cell bodies can be significantly increased
- number of neurite branches ([2]; ABPPk2 for 48 h): increased significantly
- proportion of long neurite neurons ([2]; ABPPk2 for 48 h): significantly higher than that of the negative control group
